The record followed here is patent US20210128609A1, “ONCOLOGY TREATMENTS USING ZINC AGENTS” (XYLONIX IP HOLDINGS PTE. LTD., priority 2018, published 2021).

One data set has as its system HeLa cells. As to conditions: 24h co-incubation with C004. An excerpt: See Goodall, M. L. et al., Developmental Cell, vol. 37, 337-349 (2016).
The next data set has as its system HCC-PDX xenograft. In words: HCC-PDX xenograft on Humanized NSG mice with TIL analysis (Example 11). It is filed as in vivo. The note with it: tumor infiltrating leukocytes. The protocol:
Pembrolizumab 25 mg/mL (Keytruda®, Merck® KGa) was purchased from Merck®. Isotonic zinc sulfate gamma-polyglutamate solution was prepared at pH 7.0 using Tris buffer (1 mM), at elemental zinc concentration of 1 mg/mL and gamma-polyglutamate concentration of 10 mg/mL.
All manipulations and procedures with mice were approved by Agency for Science, Technology and Research (A*STAR) Institutional Animal Care and Use Committee (IACUC). The diet provided was irradiated TEKLAD GLOBAL 18% Protein Rodent Diet (2918). Mice were housed in a sterile environment and only accessed under a BSL2 hood. Mice were fed, given water and monitored daily for health, and cages were changed weekly. NSG mice were purchased from The Jackson Laboratory and bred in a specific pathogen free facility at the Biological Resource Centre (BRC) in A*STAR, Singapore. One to three days old NSG pups were irradiated with a 55 s exposure equaling 1.1 Gy and transplanted with 1×10^5 CD34+ human fetal liver cells by intra-hepatic injections. The mice were bled at 8 weeks post-transplantation to determine the fraction of human immune cell reconstitution. Reconstitution was calculated by [% hCD45+/(% hCD45++% mCD45+)]. […]
Tumor volume was measured in two dimensions (length and width) using calipers and the tumor volume was calculated using the formula: Tumor size=(length […])×½. […]
For orientation: A xenograft is tissue or cells of one species grown in another, often human tumour cells in immunodeficient mice.

Consider `N.S=C(S)N1CCCC1` [PDTC], for which the “effect of inhibitor/agonist on C004-induced necrotic cytotoxicity (LDH release assay)” value in the data set with HeLa cells is given as “did not cause a shift in the IC50 necrotic cytotoxicity”.

For Pembrolizumab, the “TIL analysis, T cell involvement” value in the data set with HCC-PDX xenograft is “solely dependent on CD8+ T cells”.
